Columns and labels:
Homo sapiens = species on record: Homo sapiens; assay: Selectivity ratio of Kd for full length recombinant truncated non-catalytic N-terminal transmembrane helix containing C-terminal 4xHis tagged human CYP2A13dH expressed in Escherichia coli to Kd for full length recombinant truncated non-catalytic N-terminal transmembrane helix containing C-terminal 4xHis tagged human CYP2A6dH expressed in Escherichia coli
Cytochrome P450 2A6 = biological target: T1, Cytochrome P450 2A6 (Homo sapiens, UniProt P11509); assay: Binding affinity to full length recombinant truncated non-catalytic N-terminal transmembrane helix containing C-terminal 4xHis tagged human CYP2A6dH expressed in Escherichia coli by HTS assay; format: ADME
T1 sequence (P11509 whole entry): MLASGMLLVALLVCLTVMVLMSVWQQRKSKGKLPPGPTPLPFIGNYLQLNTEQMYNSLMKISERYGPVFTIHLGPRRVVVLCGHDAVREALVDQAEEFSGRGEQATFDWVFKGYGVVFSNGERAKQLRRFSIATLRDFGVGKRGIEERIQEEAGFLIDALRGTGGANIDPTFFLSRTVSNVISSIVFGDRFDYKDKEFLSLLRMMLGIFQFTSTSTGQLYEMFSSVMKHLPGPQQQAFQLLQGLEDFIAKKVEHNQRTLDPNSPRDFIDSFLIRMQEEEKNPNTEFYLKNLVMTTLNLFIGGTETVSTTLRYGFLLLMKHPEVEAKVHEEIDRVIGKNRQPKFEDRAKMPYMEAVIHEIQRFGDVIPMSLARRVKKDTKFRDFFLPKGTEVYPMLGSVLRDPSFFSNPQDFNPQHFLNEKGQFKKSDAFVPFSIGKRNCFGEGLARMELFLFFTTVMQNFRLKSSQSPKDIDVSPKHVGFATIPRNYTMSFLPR

Selectivity ratio (Homo sapiens) | Kd (Cytochrome P450 2A6) | Compound
12.9 |  | CC1CN(Cc2cccc(Cl)c2Cl)CC(C)O1 (stereo unspecified)
 | Not Active | Clc1ccccc1CN1CCOCC1

The next lines start with the compound.

Compound | Selectivity ratio (Homo sapiens) | Kd (Cytochrome P450 2A6)
Fc1ccccc1CN1CCOCC1 |  | Not Active
Cc1ccccc1CN1CCOCC1 |  | Not Active
Brc1ccccc1CN1CCOCC1 |  | Not Active
Fc1cccc(Cl)c1CN1CCOCC1 |  | Not Active
